Data taken from patent publication US12697330B2, “Therapeutic methods using vadadustat” (Akebia Therapeutics, Inc., priority 2021, dated 2026).

Key:
Format in all cases: in vivo, human
[1] = test system: erythropoietin (EPO); experiment: Phase 2 study, Main Study: pharmacodynamics, Baseline-Adjusted serum EPO concentration
Experimental: PK/PD Endpoints. An exposure-response analysis of vadadustat and PD measures were conducted as deemed appropriate. The PK parameters included (but were not limited to) the following: area under concentration-time curve from dosing to last measurable concentration (AUClast), area under concentration-time curve from dosing to infinity (AUCinf), Cmax, apparent total body clearance (CL/F), apparent volume of distribution (Vd/F), and terminal half-life (t1/2). The PD parameters included (but were not limited to) the following: EPO, reticulocytes, iron, ferritin, TIBC, and hepcidin.
PK population: included all randomized subjects who received study drug (vadadustat or epoetin alfa) and had enough drug concentrations to estimate AUC and Cmax. Analysis of this population was based on the dose amount taken at the date of PK sampling for the vadadustat group.
PD parameters for serum EPO concentration are presented by epoetin alfa stratification for vadadustat treatment groups in Table 7, Table 8a and Table 8b (baseline-unadjusted) and Table 9, Table 10a and Table 10b (baseline-adjusted).

[2] = test system: healthy adults; experiment: Drug interaction study with co-administration of vadadustat in healthy adults; details: with probenecid, an inhibitor of UGT and OAT1/3 transporters
Source text: Sulfasalazine. Other Breast Cancer Resistance Protein Substrates. and Probenecid. Exposures to sulfasalazine (moderately) and mesalamine (mildly) were increased with co-administration of vadadustat based on a study in healthy adults. In subjects taking vadadustat, sulfasalazine and other clinically relevant substrates of the breast cancer resistance protein (BCRP) transporter (e.g., sulfasalazine, methotrexate, mitoxantrone, imatinib, irinotecan, lapatinib, topotecan, tenofovir, glecaprevir, pibrentasvir, or sofosbuvir), caution should be taken during the study. Probenecid, an inhibitor of UDP-glucuronosyltransferase (UGT) and the organic anion transporter (OAT)1/3 transporters, increased vadadustat area under the curve and is prohibited during the study.

[3] = Phase 1b study: safety and tolerability
Source text: All subjects were followed for safety for 30 days after the Day 10 visitor 30 days after their last dose of study drug (vadadustat or ESA) if they discontinued study drug treatment early. Subjects returned to the clinic for safety assessments 2-5 days after completing Day 10/EOT and concluded the study with a follow-up telephone call to assess for AEs and concomitant medications 30 days after their last dose of study drug.
Safety Endpoints. Safety could be evaluated by: adverse events (AE), electrocardiogram (ECG), vital signs measurements, and clinical laboratory values.
Safety Population was defined as all subjects who received at least one dose of study drug. This population was analyzed based upon the actual treatment received.

[4] = Vada 150 mg, Week 11, High Epoetin Alfa Stratum >90 to <300 U/kg/week
[5] = Vada 150 mg, Week 11, Low Epoetin Alfa Stratum ≤90 U/kg/week
[6] = Vada 300 mg, Week 1 + 1, High Epoetin Alfa Stratum >90 to <300 U/kg/week
[7] = Vada 300 mg, Week 1 + 1, Low Epoetin Alfa Stratum ≤90 U/kg/week
[8] = Vada 300 mg, Week 1, High Epoetin Alfa Stratum >90 to <300 U/kg/week
[9] = Vada 300 mg, Week 1, Low Epoetin Alfa Stratum ≤90 U/kg/week
[10] = Vada 300 mg, Week 11, High Epoetin Alfa Stratum >90 to <300 U/kg/week
[11] = Vada 300 mg, Week 11, Low Epoetin Alfa Stratum ≤90 U/kg/week
[12] = Vada 450 mg, Week 1 + 1, High Epoetin Alfa Stratum >90 to <300 U/kg/week
[13] = Vada 450 mg, Week 1 + 1, Low Epoetin Alfa Stratum ≤90 U/kg/week
[14] = Vada 450 mg, Week 1, High Epoetin Alfa Stratum >90 to <300 U/kg/week
[15] = Vada 450 mg, Week 1, Low Epoetin Alfa Stratum ≤90 U/kg/week
[16] = Vada 450 mg, Week 11, High Epoetin Alfa Stratum >90 to <300 U/kg/week
[17] = Vada 450 mg, Week 11, Low Epoetin Alfa Stratum ≤90 U/kg/week
[18] = Vada 450 mg, Week 13, Low Epoetin Alfa Stratum ≤90 U/kg/week
[19] = Vada 600 mg, Week 1 + 1, High Epoetin Alfa Stratum >90 to <300 U/kg/week
[20] = Vada 600 mg, Week 1, High Epoetin Alfa Stratum >90 to <300 U/kg/week
[21] = Vada 600 mg, Week 11, High Epoetin Alfa Stratum >90 to <300 U/kg/week
[22] = Vada 600 mg, Week 11, Low Epoetin Alfa Stratum ≤90 U/kg/week
[23] = Vada 600 mg, Week 13, High Epoetin Alfa Stratum >90 to <300 U/kg/week
[24] = Vada 600 mg, Week 13, Low Epoetin Alfa Stratum ≤90 U/kg/week
[25] = Vada 750 mg, Week 11, High Epoetin Alfa Stratum >90 to <300 U/kg/week
[26] = Vada 750 mg, Week 11, Low Epoetin Alfa Stratum ≤90 U/kg/week
[27] = Vada 750 mg, Week 13, High Epoetin Alfa Stratum >90 to <300 U/kg/week
[28] = Vada 750 mg, Week 13, Low Epoetin Alfa Stratum ≤90 U/kg/week
[29] = Vada 900 mg, Week 11, High Epoetin Alfa Stratum >90 to <300 U/kg/week
[30] = Vada 900 mg, Week 11, Low Epoetin Alfa Stratum ≤90 U/kg/week

Question: For `O=C(O)CNC(=O)c1ncc(-c2cccc(Cl)c2)cc1O` [Compound 1, {[5-(3-chlorophenyl)-3-hydroxypyridine-2-carbonyl]amino}acetic acid], which “Baseline-Adjusted Serum EPO Cmax, Geometric Mean” value (“Baseline-Adjusted Serum EPO Cmax” for short) [1, 4] is on record?
Answer: 4.29 µg/mL

Question: What about the “Baseline-Adjusted Serum EPO Tmax, Median” value [1, 4] of the same molecule?
Answer: 0 h

Question: What about the “Baseline-Adjusted Serum EPO Cmax” value [1, 5] of the same molecule?
Answer: 4.32 µg/mL

Question: What about the “Baseline-Adjusted Serum EPO Tmax, Median” value [1, 5] of the same molecule?
Answer: 4.78 h

Question: And the “Baseline-Adjusted Serum EPO Cmax” value [1, 6]?
Answer: 7.2 µg/mL

Question: And the “Baseline-Adjusted Serum EPO Tmax, Median” value [1, 6]?
Answer: 0 h

Question: What about the “Baseline-Adjusted Serum EPO Cmax” value [1, 7] of the same molecule?
Answer: 10.1 µg/mL

Question: And the “Baseline-Adjusted Serum EPO Tmax, Median” value [1, 7]?
Answer: 2.00 h

Question: And the “Baseline-Adjusted Serum EPO Cmax” value [1, 8]?
Answer: 9.1 µg/mL

Question: What about the “Baseline-Adjusted Serum EPO Tmax, Median” value [1, 8] of the same molecule?
Answer: 0 h

Question: What about the “Baseline-Adjusted Serum EPO Cmax” value [1, 9] of the same molecule?
Answer: 9.1 µg/mL

Question: And the “Baseline-Adjusted Serum EPO Tmax, Median” value [1, 9]?
Answer: 4.50 h

Question: And the “Baseline-Adjusted Serum EPO Cmax” value [1, 10]?
Answer: 33.8 µg/mL

Question: And the “Baseline-Adjusted Serum EPO Tmax, Median” value [1, 10]?
Answer: 0 h

Question: And the “Baseline-Adjusted Serum EPO Cmax” value [1, 11]?
Answer: 14.5 µg/mL

Question: And the “Baseline-Adjusted Serum EPO Tmax, Median” value [1, 11]?
Answer: 1.00 h

Question: What about the “Baseline-Adjusted Serum EPO Cmax” value [1, 12] of the same molecule?
Answer: 10.0 µg/mL

Question: And the “Baseline-Adjusted Serum EPO Tmax, Median” value [1, 12]?
Answer: 0 h

Question: And the “Baseline-Adjusted Serum EPO Cmax” value [1, 13]?
Answer: 11.8 µg/mL

Question: What about the “Baseline-Adjusted Serum EPO Tmax, Median” value [1, 13] of the same molecule?
Answer: 4.50 h

Question: What about the “Baseline-Adjusted Serum EPO Cmax” value [1, 14] of the same molecule?
Answer: 14.0 µg/mL

Question: What about the “Baseline-Adjusted Serum EPO Tmax, Median” value [1, 14] of the same molecule?
Answer: 4.50 h

Question: And the “Baseline-Adjusted Serum EPO Cmax” value [1, 15]?
Answer: 18.1 µg/mL

Question: What about the “Baseline-Adjusted Serum EPO Tmax, Median” value [1, 15] of the same molecule?
Answer: 1.75 h

Question: What about the “Baseline-Adjusted Serum EPO Cmax” value [1, 16] of the same molecule?
Answer: 15.5 µg/mL

Question: What about the “Baseline-Adjusted Serum EPO Tmax, Median” value [1, 16] of the same molecule?
Answer: 0.88 h

Question: What about the “Baseline-Adjusted Serum EPO Cmax” value [1, 17] of the same molecule?
Answer: 8.00 µg/mL

Question: And the “Baseline-Adjusted Serum EPO Tmax, Median” value [1, 17]?
Answer: 2.08 h

Question: What about the “Baseline-Adjusted Serum EPO Cmax” value [1, 18] of the same molecule?
Answer: 11.4 µg/mL

Question: And the “Baseline-Adjusted Serum EPO Tmax, Median” value [1, 18]?
Answer: 3.94 h

Question: What about the “Baseline-Adjusted Serum EPO Cmax” value [1, 19] of the same molecule?
Answer: 18.9 µg/mL

Question: What about the “Baseline-Adjusted Serum EPO Tmax, Median” value [1, 19] of the same molecule?
Answer: 2.47 h

Question: What about the “Baseline-Adjusted Serum EPO Cmax” value [1, 20] of the same molecule?
Answer: 26.0 µg/mL

Question: And the “Baseline-Adjusted Serum EPO Tmax, Median” value [1, 20]?
Answer: 0 h

Question: What about the “Baseline-Adjusted Serum EPO Cmax” value [1, 21] of the same molecule?
Answer: 14.6 µg/mL

Question: And the “Baseline-Adjusted Serum EPO Tmax, Median” value [1, 21]?
Answer: 0.92 h

Question: What about the “Baseline-Adjusted Serum EPO Cmax” value [1, 22] of the same molecule?
Answer: 13.7 µg/mL

Question: And the “Baseline-Adjusted Serum EPO Tmax, Median” value [1, 22]?
Answer: 4.00 h

Question: What about the “Baseline-Adjusted Serum EPO Cmax” value [1, 23] of the same molecule?
Answer: 173.0 µg/mL

Question: And the “Baseline-Adjusted Serum EPO Tmax, Median” value [1, 23]?
Answer: 4.63 h

Question: What about the “Baseline-Adjusted Serum EPO Cmax” value [1, 24] of the same molecule?
Answer: 8.1 µg/mL

Question: And the “Baseline-Adjusted Serum EPO Tmax, Median” value [1, 24]?
Answer: 7.08 h

Question: What about the “Baseline-Adjusted Serum EPO Cmax” value [1, 25] of the same molecule?
Answer: 14.8 µg/mL

Question: What about the “Baseline-Adjusted Serum EPO Tmax, Median” value [1, 25] of the same molecule?
Answer: 4.75 h

Question: And the “Baseline-Adjusted Serum EPO Cmax” value [1, 26]?
Answer: 3.91 µg/mL

Question: And the “Baseline-Adjusted Serum EPO Tmax, Median” value [1, 26]?
Answer: 4.50 h

Question: And the “Baseline-Adjusted Serum EPO Cmax” value [1, 27]?
Answer: 6.8 µg/mL

Question: And the “Baseline-Adjusted Serum EPO Tmax, Median” value [1, 27]?
Answer: 0 h

Question: And the “Baseline-Adjusted Serum EPO Cmax” value [1, 28]?
Answer: 7.7 µg/mL

Question: What about the “Baseline-Adjusted Serum EPO Tmax, Median” value [1, 28] of the same molecule?
Answer: 4.50 h

Question: What about the “Baseline-Adjusted Serum EPO Cmax” value [1, 29] of the same molecule?
Answer: 21.4 µg/mL

Question: What about the “Baseline-Adjusted Serum EPO Tmax, Median” value [1, 29] of the same molecule?
Answer: 0 h

Question: What about the “Baseline-Adjusted Serum EPO Cmax” value [1, 30] of the same molecule?
Answer: 10.8 µg/mL

Question: What about the “Baseline-Adjusted Serum EPO Tmax, Median” value [1, 30] of the same molecule?
Answer: 0 h

Question: Which “vadadustat area under the curve” value [2] does the source give for `O=C(O)CNC(=O)c1ncc(-c2cccc(Cl)c2)cc1O` [vadadustat, {[5-(3-chlorophenyl)-3-hydroxypyridine-2-carbonyl]amino}acetic acid] here?
Answer: increased

Question: What about the “incidence of drug-related Treatment Emergent Adverse Events (TEAEs)” value ([3]; 3 vadadustat treatment arms) of the same molecule?
Answer: infrequent and similar across all 3 treatment arms

Question: What about the safety concerns ([3]; 600, 750, 900 mg QD, 10 days) of the same molecule?
Answer: No major safety concerns were observed

Question: And the tolerability ([3]; oral administration, 600, 750, 900 mg QD, 10 days)?
Answer: generally well tolerated
